We go through two compounds from US11136562B2, “Conditionally active heterodimeric polypeptides and methods of use thereof” (The Regents of the University of California, priority 2016, dated 2021).

Data set [1] has as its system CD19-expressing K562 target cells. Nature of the data set: Target cell killing by primary human CD8+ T cells expressing the CD19 specific ER-beta/CoRNR ON-switch CAR. Format: cell-based. The conditions noted are these: 22 hours co-culture; percent of CD19-expressing K562 target cells remaining; various drug concentrations. As for the experimental part: Cell killing by primary human CD8+ T cells expressing the CD19 specific ER-beta/CoRNR ON-switch CAR was also assessed. Specifically, the percent of CD19-expressing K562 target cells remaining after 22 hours of co-culture with primary human CD8+ T cells expressing the CD19 specific ER-beta/CoRNR ON-switch CAR (ER-CAR) in the presence of various concentrations of drug (4-hydroxytamoxifen (4HT) or rapalog) was measured (FIG. 52). Cells expressing a CD19 specific single-chain second generation CAR (“2nd gen CAR”) and cells expressing a CD19 specific rapalog on-switch CAR, with administered rapalog dimerizer, were used as positive controls. Negative controls included cells expressing ER-CAR T cells in absence of 4HT (ethanol vehicle only, “ER-CAR+EtOH”) and cells expressing only part 2 of the ER-CAR on-switch construct, i.e., without part 1, in the presence of 4HT.

Data set [2] concerns ER CAR+ Jurkat cells. Briefly: CD69 upregulation by ER CAR+ Jurkat cells (bCW502 and bCW505) co-cultured with K562 target cells. Format: cell-based, human. As for the experimental part: A Jurkat cell line expressing Green Fluorescent Protein upon NFAT activation was used. The cell line was maintained in RPMI-1640 medium supplemented with 10% FBS and glutamine. K562 target cells (CD19+/−) were cultured in DMEM supplemented with 10% FBS. Jurkat cells infected with lentivirus with the CAR constructs were co-cultured with K562 target cells that expressed the target antigen (CD19) or an irrelevant antigen (mesothelin). 4-Hydroxytamoxifen (Sigma-Aldrich #H7904) was dissolved in DMSO and added to samples to a final concentration of 0-10 μM. The Rapalog A/C Heterodimerizer (Clontech Laboratories #635055) was dissolved in ethanol and added to a final concentration of 500 nM. The cells were cultured for 24 hours, stained for CD69 expression, and analyzed on a flow cytomter.
The data are depicted in FIG. 16A and FIG. 16B. FIG. 16A. CD69 upregulation by Jurkat cells expressing ER CAR+ (bCW502 and bCW505) after 24 hours of co-culturing with K562 target cells expressing CD19 or mesothelin, an irrelevant antigen (“meso”), in the presence or absence of a small-molecule dimerizer (4-hydroxytamoxifen or rapalog AP21967). […] Rapamycin CAR and dead rapamycin CAR (with a mutation in ITAM that abolishes signalling) were tested as positive and negative controls, respectively. FIG. 16B. […]

The subject of data set [3] is primary human CD8+ T cells expressing a CD19 specific ER-beta/CoRNR ON-switch CAR. Nature of the data set: CD69 upregulation by primary human CD8+ T cells expressing ER-beta/CoRNR ON-switch CAR co-cultured with K562 target cells. The conditions noted are these: 24 hours co-culture with K562 cells expressing CD19, 4-hydroxytamoxifen 0-10 μM. It is filed as cell-based. The source says:
A human estrogen receptor beta nuclear receptor-peptide system was expressed in primary human T cells and found to capable of modulating ON-switch CAR activity. A CD19 specific ON-switch CAR was constructed to include human estrogen receptor beta ligand binding domain and co-repressor peptide (CoRNR). A schematic representation of the general construct within the T cell membrane, and the associated CD19 antigen expressed on the surface of the target cell, is provided in FIG. 17.
Specifically, CD69 upregulation by primary human CD8+ T cells expressing a CD19 specific ON-switch CAR constructed to include human estrogen receptor beta ligand binding domain (ER-beta) and co-repressor peptide (CoRNR) was measured after 24 hours of co-culturing with K562 target cells expressing CD19 or mesothelin, an irrelevant antigen (“meso”), in the presence or absence of a small-molecule dimerizer (4-hydroxytamoxifen or rapalog “rapa”).

The test system of data set [4] is primary CD8+ T cells expressing a split ON-switch CAR (human Vitamin D receptor ligand binding domain / SRC2-3 coactivator peptide). Briefly: T cell activation of primary CD8+ T cells expressing a split ON-switch CAR with human Vitamin D receptor LBD and SRC2-3 coactivator peptide. Format: cell-based. The conditions noted are these: in the presence of the dimerizer.

As usually defined, the EC50 is the midpoint of the concentration-response curve. In the case of 4-Hydroxytamoxifen, in data set [1], the “target cell killing (cytotoxic activity)” value was “inducible target cell killing”. Moreover, the EC50 in data set [2] (24 hours co-culture with K562 cells expressing CD19, flow cytometry, read-out: EC50 of CD69 expression induction) was approximately 100 nM. Besides, in data set [2] (24 hours co-culture, only in the presence of K562 cells expressing CD19, not the irrelevant antigen mesothelin), the “CD69 expression in ER CAR+ Jurkat cells” value is recorded as “strongly induced”. Further, the “T cell activation (CD69 upregulation) of primary human CD8+ T cells” value is listed as “increasing numbers of CD69 positive primary human CD8+ T cells” in data set [3] and “increased T cell activation” in data set [3] (listed as 4-hyroxytamoxifen).
As for `C=C1/C(=C\C=C2/CCC[C@]3(C)[C@@H]([C@H](C)/C=C/[C@@H](O)C4CC4)CC[C@@H]23)C[C@@H](O)C[C@@H]1O` [calcipotriol], the T cell activation entry in data set [4] is “increased activation”.
